According to PubChem BioAssay (NCI):
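Following 48 hours of exposure in 96-well plates, responses at five concentrations were used to interpolate endpoints linearly. GI50 = concentration required for 50% inhibition of growth. TGI marks complete inhibition of growth.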

Experiments:
Experiment in all cases: DTP human tumour cell line panel, 48 h; in the data active means GI50 below about 0.43 µM; inactive means the rest
[1] = system: KM12 colon
[2] = system: CCRF-CEM leukemia
[3] = system: OVCAR-5 ovarian
[4] = system: HS 578T breast
[5] = system: HT29 colon
[6] = system: SK-OV-3 ovarian
[7] = system: PC-3 prostate
[8] = system: K-562 leukemia
[9] = system: NCI/ADR-RES ovarian
[10] = system: MCF7 breast
[11] = system: OVCAR-3 ovarian
[12] = system: MDA-MB-435
[13] = system: MALME-3M melanoma
[14] = system: A498 renal
[15] = system: ACHN renal
[16] = system: RXF 393 renal
[17] = system: U251 CNS
[18] = system: SF-539 CNS
[19] = system: SK-MEL-5 melanoma
[20] = system: SR leukemia
[21] = system: SF-295 CNS
[22] = system: BT-549 breast
[23] = system: UO-31 renal
[24] = system: HL-60(TB) leukemia
[25] = system: SNB-75 CNS
[26] = system: SNB-19 CNS
[27] = system: NCI-H460 lung
[28] = system: DU-145 prostate
[29] = system: IGROV1 ovarian
[30] = system: RPMI-8226 leukemia
[31] = system: SF-268 CNS
[32] = system: SN12C renal
[33] = system: NCI-H23 lung
[34] = system: NCI-H522 lung
[35] = system: SK-MEL-2 melanoma
[36] = system: HCC-2998 colon
[37] = system: A549 NSCLC
[38] = system: T-47D breast
[39] = system: SK-MEL-28 melanoma
[40] = system: LOX IMVI melanoma
[41] = system: UACC-257 melanoma
[42] = system: OVCAR-4 ovarian
[43] = system: TK-10 renal
[44] = system: UACC-62 melanoma
[45] = system: COLO 205 colon
[46] = system: 786-0 renal
[47] = system: HOP-62 NSCLC
[48] = system: EKVX NSCLC
[49] = system: MDA-MB-231 breast
[50] = system: SW-620 colon
[51] = system: HOP-92 NSCLC
[52] = system: MOLT-4 leukemia
[53] = system: HCT-15 colon
[54] = system: NCI-H226 lung
[55] = system: M14 melanoma
[56] = system: OVCAR-8 ovarian
[57] = system: HCT-116 colon

CSc1ccc(-c2ccccc(=O)c2O)cc1
67300 nM: TGI [42]
30300 nM: TGI [32]
28300 nM: TGI [33]
12600 nM: TGI [46]
50900 nM: TGI [47]
11600 nM: TGI [18]
10800 nM: TGI [27]
1550 nM: TGI [24]
18300 nM: TGI [21]
inactive: GI50 [1] 508 nM | GI50 [3] 1640 nM | GI50 [4] 2770 nM | GI50 [5] 714 nM | GI50 [6] 551 nM | GI50 [7] 748 nM | GI50 [8] 447 nM | GI50 [12] 646 nM | GI50 [13] 2410 nM | GI50 [14] 2710 nM | GI50 [16] 976 nM | GI50 [17] 568 nM | GI50 [21] 437 nM | GI50 [22] 873 nM | GI50 [25] 3120 nM | GI50 [26] 570 nM | GI50 [28] 849 nM | GI50 [29] 427 nM | GI50 [30] 428 nM | GI50 [31] 625 nM | GI50 [32] 878 nM | GI50 [33] 688 nM | GI50 [34] 470 nM | GI50 [35] 966 nM | GI50 [36] 594 nM | GI50 [37] 896 nM | GI50 [38] 985 nM | GI50 [39] 663 nM | GI50 [41] 749 nM | GI50 [43] 593 nM | GI50 [45] 1980 nM | GI50 [46] 447 nM | GI50 [47] 540 nM | GI50 [49] 603 nM | GI50 [51] 1610 nM | GI50 [54] 1680 nM | GI50 [57] 506 nM
2120 nM: TGI [9]
31400 nM: TGI [35]
14500 nM: TGI [20]
64800 nM: TGI [56]
83800 nM: TGI [37]
32900 nM: TGI [39]
37000 nM: TGI [54]
> 100000 nM: TGI [1] | TGI [2] | TGI [3] | TGI [5] | TGI [6] | TGI [7] | TGI [8] | TGI [10] | TGI [12] | TGI [13] | TGI [25] | TGI [26] | TGI [28] | TGI [29] | TGI [31] | TGI [36] | TGI [38] | TGI [41] | TGI [43] | TGI [45] | TGI [49] | TGI [50] | TGI [52]
37400 nM: TGI [57]
71100 nM: TGI [15]
5200 nM: TGI [23]
3960 nM: TGI [48]
29700 nM: TGI [11] | TGI [53]
73300 nM: TGI [51]
17100 nM: TGI [40]
99700 nM: TGI [4]
2680 nM: TGI [55]
19000 nM: TGI [14]
35200 nM: TGI [22]
active: GI50 [2] 347 nM | GI50 [9] 278 nM | GI50 [10] 322 nM | GI50 [11] 373 nM | GI50 [15] 397 nM | GI50 [18] 394 nM | GI50 [19] 413 nM | GI50 [20] 404 nM | GI50 [23] 351 nM | GI50 [24] 283 nM | GI50 [27] 371 nM | GI50 [40] 336 nM | GI50 [42] 271 nM | GI50 [44] 397 nM | GI50 [48] 280 nM | GI50 [50] 386 nM | GI50 [52] 348 nM | GI50 [53] 172 nM | GI50 [55] 347 nM | GI50 [56] 390 nM
24600 nM: TGI [17]
55900 nM: TGI [34]
2920 nM: TGI [44]
26900 nM: TGI [30]
5050 nM: TGI [19]
16200 nM: TGI [16]
